According to ChEMBL document CHEMBL4622854, “Synthetic bioactive olivetol-related amides: The influence of the phenolic group in cannabinoid receptor activity” (Bioorg Med Chem, 2020):
The source made the active and inactive calls. The calls are words filed in the database; no cut-off is given here.

Experiments:
[1] = target: T1, Cannabinoid receptor 2 (Homo sapiens, UniProt P34972); assay: Displacement of [3H]-CP55940 from human recombinant CB2 receptor expressed in HEK cell membrane; format: cell membranes
T1 sequence (P34972 whole entry): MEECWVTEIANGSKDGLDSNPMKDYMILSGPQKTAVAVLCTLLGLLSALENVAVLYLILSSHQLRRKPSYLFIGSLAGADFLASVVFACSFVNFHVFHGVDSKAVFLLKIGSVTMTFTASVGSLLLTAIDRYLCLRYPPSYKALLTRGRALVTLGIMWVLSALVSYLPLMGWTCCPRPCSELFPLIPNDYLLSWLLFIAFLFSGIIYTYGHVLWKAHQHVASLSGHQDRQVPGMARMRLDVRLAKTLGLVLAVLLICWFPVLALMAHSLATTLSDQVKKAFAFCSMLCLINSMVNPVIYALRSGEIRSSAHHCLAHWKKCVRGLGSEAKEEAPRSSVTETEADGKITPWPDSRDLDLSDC

[2] = target: T2, Cannabinoid receptor 1 (Homo sapiens, UniProt P21554); assay: Displacement of [3H]-CP55940 from human recombinant CB1 receptor expressed in HEK cell membrane; format: cell membranes
T2 sequence (P21554 whole entry): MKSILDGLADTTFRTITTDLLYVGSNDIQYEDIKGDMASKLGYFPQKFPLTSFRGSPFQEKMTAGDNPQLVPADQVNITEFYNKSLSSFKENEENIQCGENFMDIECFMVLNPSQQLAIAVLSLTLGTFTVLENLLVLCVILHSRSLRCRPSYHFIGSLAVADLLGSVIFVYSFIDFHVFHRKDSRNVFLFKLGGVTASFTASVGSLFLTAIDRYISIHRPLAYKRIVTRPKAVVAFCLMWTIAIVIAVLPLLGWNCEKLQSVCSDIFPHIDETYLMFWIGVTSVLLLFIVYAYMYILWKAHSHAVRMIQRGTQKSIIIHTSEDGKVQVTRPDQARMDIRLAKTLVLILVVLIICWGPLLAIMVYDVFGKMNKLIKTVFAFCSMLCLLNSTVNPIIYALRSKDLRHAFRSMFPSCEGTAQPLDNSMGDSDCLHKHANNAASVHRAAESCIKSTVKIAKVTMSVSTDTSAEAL

[3] = organism: Homo sapiens; assay: Selectivity ratio of Ki for displacement of [3H]-CP55940 from human recombinant CB1 receptor expressed in HEK293 cell membrane to Ki for displacement of [3H]-CP55940 from human recombinant CB2 receptor expressed in HEK293 cell membrane
[4] = target: T1, Cannabinoid receptor 2; assay: Agonist activity at human CB2 receptor expressed in CHO cell membrane assessed as stimulation of [35S]-GTPgammaS binding incubated for 1 hr by liquid scintillation counting assay relative to control
[5] = target: T2, Cannabinoid receptor 1; assay: Agonist activity at human CB1 receptor expressed in CHO cell membrane assessed as stimulation of [35S]-GTPgammaS binding incubated for 1 hr by liquid scintillation counting assay; format: functional, cell membranes
[6] = target: T1, Cannabinoid receptor 2; assay: Antagonist activity at human CB2 receptor expressed in CHO cell membrane assessed as inhibition of CP55940-induced [35S]-GTPgammaS binding incubated for 1 hr by liquid scintillation counting
[7] = target: T1, Cannabinoid receptor 2; assay: Agonist activity at human CB2 receptor expressed in CHO cell membrane assessed as inhibition of [35S]-GTPgammaS binding incubated for 1 hr by liquid scintillation counting assay; format: functional, cell membranes
[8] = target: T2, Cannabinoid receptor 1; assay: Agonist activity at human CB1 receptor expressed in CHO cell membrane assessed as stimulation of [35S]-GTPgammaS binding incubated for 1 hr by liquid scintillation counting assay relative to control
[9] = target: T1, Cannabinoid receptor 2; assay: Agonist activity at human CB2 receptor at 1 nM to 1 uM expressed in CHO cell membrane assessed as stimulation of [35S]-GTPgammaS binding incubated for 1 hr by liquid scintillation counting assay
[10] = target: T1, Cannabinoid receptor 2; assay: Agonist activity at human CB2 receptor at 10 uM expressed in CHO cell membrane assessed as stimulation of [35S]-GTPgammaS binding incubated for 1 hr by liquid scintillation counting assay relative to control
[11] = test system: Mus musculus; assay: Antinociceptive activity in formalin-induced nociception pain CD-1 mouse model assessed as reduction in pain related behavior in late phase at 1 to 3 mg/kg, ip pretreated with compound 10 mins prior to formalin induction measured after 20 to 60 mins by formalin test; format: functional, organism-based
[12] = organism: Mus musculus; assay: Antinociceptive activity in formalin-induced nociception pain CD-1 mouse model assessed as reduction in pain related behavior pretreated with compound 10 mins prior to formalin induction co-treated with AM630 measured until 60 mins by formalin test; format: functional, organism-based
[13] = organism: Mus musculus; assay: Antinociceptive activity in formalin-induced nociception pain CD-1 mouse model assessed as reduction in pain related behavior pretreated with compound 10 mins prior to formalin induction co-treated with AM251 measured until 60 mins by formalin test; format: functional, organism-based
[14] = test system: Mus musculus; assay: Antinociceptive activity in formalin-induced nociception pain CD-1 mouse model assessed as reduction in pain related behavior in late phase at 6 mg/kg, ip pretreated with compound 10 mins prior to formalin induction measured after 20 to 60 mins by formalin test; format: functional, organism-based
[15] = target: T3, Transient receptor potential cation channel subfamily V member 1 (Homo sapiens, UniProt Q8NER1); assay: Antagonist activity at human TRPV1 expressed in HEK293 cells assessed as capsaicin-induced increase of calcium influx preincubated for 5 mins by Fluo-4AM dye based fluorescence assay; format: cell-based
T3 sequence (Q8NER1 whole entry): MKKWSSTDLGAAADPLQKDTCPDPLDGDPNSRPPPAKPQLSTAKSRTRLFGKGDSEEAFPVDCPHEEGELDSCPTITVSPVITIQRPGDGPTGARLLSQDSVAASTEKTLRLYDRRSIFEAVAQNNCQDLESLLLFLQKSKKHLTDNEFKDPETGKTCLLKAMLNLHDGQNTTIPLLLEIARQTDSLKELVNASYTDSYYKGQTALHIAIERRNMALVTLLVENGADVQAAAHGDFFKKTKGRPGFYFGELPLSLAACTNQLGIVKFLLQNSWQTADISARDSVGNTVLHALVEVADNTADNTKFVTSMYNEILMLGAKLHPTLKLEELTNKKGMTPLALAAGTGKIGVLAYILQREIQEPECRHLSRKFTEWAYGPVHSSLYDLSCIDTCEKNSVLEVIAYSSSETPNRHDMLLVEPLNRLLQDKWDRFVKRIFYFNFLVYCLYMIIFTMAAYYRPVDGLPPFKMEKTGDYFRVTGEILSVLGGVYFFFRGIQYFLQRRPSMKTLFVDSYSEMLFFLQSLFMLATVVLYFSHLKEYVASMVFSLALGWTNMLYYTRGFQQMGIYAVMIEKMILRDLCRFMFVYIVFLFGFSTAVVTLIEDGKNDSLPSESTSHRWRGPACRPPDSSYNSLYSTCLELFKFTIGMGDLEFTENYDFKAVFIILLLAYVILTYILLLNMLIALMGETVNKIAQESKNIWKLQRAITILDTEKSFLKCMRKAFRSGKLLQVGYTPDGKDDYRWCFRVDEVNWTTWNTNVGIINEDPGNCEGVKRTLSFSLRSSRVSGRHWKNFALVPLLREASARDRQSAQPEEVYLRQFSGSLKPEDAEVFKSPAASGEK

[16] = target: Transient receptor potential cation channel subfamily A member 1 (Rattus norvegicus) (UniProt Q6RI86); assay: Antagonist activity at rat recombinant TRPA1 expressed in HEK293 cells assessed as AITC-induced increase of calcium influx at 100 uM preincubated for 5 mins by Fluo-4AM dye based fluorescence assay relative to control; format: cell-based
Chain of Transient receptor potential cation channel subfamily A member 1 (Rattus norvegicus) (Q6RI86 whole entry): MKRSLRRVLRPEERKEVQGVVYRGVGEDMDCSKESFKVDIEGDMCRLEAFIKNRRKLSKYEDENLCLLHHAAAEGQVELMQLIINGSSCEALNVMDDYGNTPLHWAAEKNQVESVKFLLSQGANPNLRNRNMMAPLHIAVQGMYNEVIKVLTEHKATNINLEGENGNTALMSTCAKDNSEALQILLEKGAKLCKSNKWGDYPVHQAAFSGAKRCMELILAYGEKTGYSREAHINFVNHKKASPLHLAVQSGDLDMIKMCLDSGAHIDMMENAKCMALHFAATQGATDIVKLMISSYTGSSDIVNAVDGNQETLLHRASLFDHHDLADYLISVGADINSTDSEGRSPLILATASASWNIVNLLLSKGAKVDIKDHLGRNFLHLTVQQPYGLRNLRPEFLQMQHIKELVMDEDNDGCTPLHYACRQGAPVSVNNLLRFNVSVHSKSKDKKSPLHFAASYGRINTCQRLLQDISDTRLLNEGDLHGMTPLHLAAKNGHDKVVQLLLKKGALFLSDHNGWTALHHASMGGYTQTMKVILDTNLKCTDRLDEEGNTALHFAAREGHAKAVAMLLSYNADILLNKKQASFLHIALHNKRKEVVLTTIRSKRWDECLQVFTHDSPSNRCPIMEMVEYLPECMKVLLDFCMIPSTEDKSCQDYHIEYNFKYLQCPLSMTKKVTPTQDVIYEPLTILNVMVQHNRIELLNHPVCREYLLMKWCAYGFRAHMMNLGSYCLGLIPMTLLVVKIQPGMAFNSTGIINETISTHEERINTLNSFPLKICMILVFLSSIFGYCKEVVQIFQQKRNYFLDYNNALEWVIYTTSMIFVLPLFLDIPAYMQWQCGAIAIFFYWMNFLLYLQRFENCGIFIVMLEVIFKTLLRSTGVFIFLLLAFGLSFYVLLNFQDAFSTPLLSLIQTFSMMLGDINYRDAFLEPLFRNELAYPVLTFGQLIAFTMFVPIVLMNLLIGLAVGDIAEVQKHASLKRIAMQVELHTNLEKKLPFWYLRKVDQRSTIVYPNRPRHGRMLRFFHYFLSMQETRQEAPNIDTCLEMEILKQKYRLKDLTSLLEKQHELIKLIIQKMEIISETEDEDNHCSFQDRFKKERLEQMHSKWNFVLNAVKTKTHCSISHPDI

[17] = target: T4, Transient receptor potential cation channel subfamily A member 1 (Rattus norvegicus, UniProt Q6RI86); assay: Activation of rat recombinant TRPA1 expressed in HEK293 cells assessed as calcium influx preincubated for 5 mins by Fluo-4AM dye based fluorescence assay; format: cell-based
T4 sequence (Q6RI86 whole entry): as above

[18] = target: T3, Transient receptor potential cation channel subfamily V member 1; assay: Activation of human TRPV1 expressed in HEK293 cells assessed as calcium influx preincubated for 5 mins by Fluo-4AM dye based fluorescence assay; format: cell-based
[19] = target: T4, Transient receptor potential cation channel subfamily A member 1; assay: Antagonist activity at rat recombinant TRPA1 expressed in HEK293 cells assessed as AITC-induced increase of calcium influx preincubated for 5 mins by Fluo-4AM dye based fluorescence assay; format: cell-based
[20] = test system: Mus musculus; assay: Antinociceptive activity in formalin-induced nociception pain CD-1 mouse model assessed as reduction in pain related behavior in late phase through ip pretreated with compound 10 mins prior to formalin induction measured after 20 to 60 mins by formalin test; format: functional, organism-based
[21] = test system: Mus musculus; assay: Antinociceptive activity in formalin-induced nociception pain CD-1 mouse model assessed as reduction in pain related behavior in first phase at 4 mg/kg, ip pretreated with compound 10 mins prior to formalin induction measured from 0 to 10 mins by formalin test; format: functional, organism-based
[22] = target: T3, Transient receptor potential cation channel subfamily V member 1; assay: Antagonist activity at human TRPV1 expressed in HEK293 cells assessed as ionomycin-induced increase of calcium influx at 4 uM preincubated for 5 mins by Fluo-4AM dye based fluorescence assay relative to control; format: cell-based
[23] = test system: HepG2; assay: Antiproliferation activity against human HepG2 cells assessed as reduction in cell viability at 1 uM incubated for 24 to 72 hrs by MTT assay; format: functional, cell-based

SMILES | Ki [1] [nM] | Ki [2] [nM] | Selectivity ratio [3] | also measured
CCCCCc1cc(OCCCC)cc(OCCCCCCCCCCC(=O)NC2CC2)c1 | 21.5 | 11.3 | 0.5 | 
CCCCCc1cc(OC)cc(OCCCCCCCCCCC(=O)NCCO)c1 | 33.2 | 87.6 | 2.6 | 
CCCCCc1cc(O)cc(OCCCCCCCCCCC(=O)NC2CC2)c1 |  |  | 0.4 | 
CCCCCc1cc(OCC)cc(OCCCCCCCCCCC(=O)NC2CC2)c1 | 6.7 | 11.7 | 1.8 | 
CCCCCc1cc(OC)cc(OCCCCCCCCCCC(=O)NCC(F)(F)F)c1 | 22.9 | 75.5 | 3.3 | 
CCCCCc1cccc(OCCCCCCCCCCC(=O)NC2CC2)c1 | 3.5 | 5.9 | 1.7 | Emax [4]: -13%; EC50 [5]: 31 nM; Kb [6]: 78.2 nM; EC50 [7]: 1.28 nM; Emax [8]: 29.5%
CCCCCCc1ccc(OC)cc1OCCCCCCCCCCC(=O)NCC1CC1 | 62.6 | 693 | 11.1 | 
CCCCCc1cc(OCCCCCCCCCCC(=O)NC2CC2)cc(OC(C)C)c1 | 2.7 | 20.7 | 7.7 | 
CCCCCCC(C)(C)c1cc(OC)cc(OCCCCCCCCCCC(=O)NC2CC2)c1 | 26.1 | 280 | 10.7 | 
CCCCCCC(C)(C)c1cc(OC)cc(OCCCCCCCCCCC(=O)NCC2CC2)c1 | 322 | 3190 | 9.9 | 
CCCCCc1cc(OC)cc(OCCCCCCCCCCC(=O)NC(CO)CO)c1 | 598 | 350 | 0.6 | 
CCCCCc1cc(OC)cc(OCCCCCCCCCCC(=O)Nc2ccccc2)c1 | 309 | 845 | 2.7 | 
C=CCOc1cc(CCCCC)cc(OCCCCCCCCCCC(=O)NC2CC2)c1 | 4.7 | 13.6 | 2.9 | 
CCCCCCc1ccc(OCCCCCCCCCCC(=O)NCC2CC2)cc1OC | 48.8 | 3250 | 66.6 | Emax [4]: -18.3%; Activity [9]: Active; Kb [6]: 30.6 nM; EC50 [7]: 174 nM
C=CCNC(=O)CCCCCCCOc1cc(OC)cc(C(C)(C)CCCCCC)c1 | 31.2 | 7.6 | 0.2 | 
CCCCCCC(C)(C)c1cc(OC)cc(OCCCCCCCC(=O)NCCO)c1 | 129 | 89.1 | 0.7 | 
CCCCCc1cc(OC)cc(OCCCCCCCC(=O)NCCO)c1 | 41.9 | 76.1 | 1.8 | 
CCCCCCC(C)(C)c1cc(OC)cc(OCCCCCCCCCCC(=O)NC(CO)CO)c1 | 1370 | > 10000 | > 7.3 | 
C=CCNC(=O)CCCCCCCCCCOc1cc(CCCCC)cc(OC)c1 | 6.8 | 23.7 | 3.5 | 
CCCCCCC(C)(C)c1cc(OC)cc(OCCCCCCCC(=O)NCC(F)(F)F)c1 | 92.8 | 53.5 | 0.6 | 
CCCCCc1cc(OC)cc(OCCCCCCCCCCC(=O)NC2CC2)c1 | 1.2 | 3.5 | 2.9 | Emax [10]: -17.8%; Activity [11]: inactive; Activity [12]: inactive; Activity [9]: Active; Activity [13]: inactive; EC50 [5]: 6.21 nM; Kb [6]: 37.8 nM; EC50 [7]: 398 nM; Activity [14]: Active; Emax [8]: 62.7%
CCCCCCC(C)(C)c1cc(OC)cc(OCCCCCCCC(=O)NC2CC2)c1 | 4.2 | 1.1 | 0.3 | Activity [12]: Active; Emax [4]: 28.3%; IC50 [15]: 800 nM; Efficacy [16]: 17.2%; EC50 [17]: 11.1 µM; Activity [13]: inactive; EC50 [18]: 120 nM; IC50 [19]: > 100 µM; EC50 [5]: 15.1 nM; EC50 [7]: 1.16 nM; Emax [8]: 52.5%; Activity [20]: Dose-dependent effect; Activity [21]: Active; Efficacy [22]: 29.4%; Activity [23]: inactive
CCCCCc1cc(OC)cc(OCCCCCCCCCCC(=O)NCC2CC2)c1 | 10.3 | 297 | 28.9 | 
CCCCCCC(C)(C)c1cc(OC)cc(OCCCCCCCCCCC(=O)NCCO)c1 | 104 | 3160 | 30 | 
